Test results: publication PMC7838546, “A Thermostable, Modified Cathelicidin-Derived Peptide With Enhanced Membrane-Active Activity Against Salmonella enterica serovar Typhimurium” (Frontiers in Microbiology, 2021)

Tested on: L929 mouse fibroblast cells
Assay: Cytotoxicity assay (MTT)
Format: cell-based
Conditions: 24 h, 62.5 μg/ml
Procedure: The toxicity of P7 peptide on L929 mouse fibroblast cells was assessed by a dye reduction assay using 3-(4,5 dimethylthiazol-2-yl)-2,5-diphenyltetrazolium bromide (MTT). Briefly, 3 × 10^4 L929 cells in RPMI 1640 [supplemented with 10% (v/v) fetal bovine serum, 0.2% (w/v) sodium bicarbonate, 2 mM L-glutamine, 100 U/ml penicillin and […] streptomycin] were seeded into each well of 96-well plates and then incubated in a humidified atmosphere with 5% CO2 at 37°C for 24 h. After the incubation period, the peptide was added to obtain final concentrations of 0.98–250 μg/ml; plates were incubated at 37°C under 5% CO2 for 24 h. RPMI 1640 medium with and without cells were used as positive and negative controls, respectively. After incubation, a final concentration of 0.5 mg/ml MTT (Sigma-Aldrich, MO, United States) was added and incubated at 37°C under 5% CO2 for 4 h. Then, the supernatants were removed from each well and 150 μl of dimethyl sulfoxide (DMSO) was added and mixed thoroughly to solubilize the formazan crystals. Subsequently, absorbance was measured at 570 nm using a microplate reader. The cell viability (%) was calculated according to the formula:
%Cellviability=ODTreated-ODBlank/ODUntreated-ODBlank×100

CC[C@H](C)[C@H](NC(=O)CN)C(=O)NCC(=O)N[C@@H](C)C(=O)N[C@H](C(=O)N[C@@H](CC(C)C)C(=O)N[C@@H](CCCCN)C(=O)N[C@H](C(=O)N[C@@H](CC(C)C)C(=O)N[C@H](C(=O)N[C@H](C(=O)NCC(=O)N[C@@H](CC(C)C)C(=O)N1CCC[C@H]1C(=O)N[C@@H](C)C(=O)N[C@@H](CC(C)C)C(=O)N[C@H](C(=O)N[C@@H](CO)C(=O)N[C@@H](Cc1c[nH]c2ccccc12)C(=O)N[C@H](C(=O)N[C@@H](CCCCN)C(=O)N[C@@H](CCCNC(=N)N)C(=O)N[C@@H](CCCCN)C(=O)N[C@@H](CCCNC(=N)N)C(=O)N[C@@H](CCC(N)=O)C(=O)N[C@@H](CCC(N)=O)C(N)=O)[C@@H](C)CC)[C@@H](C)CC)[C@@H](C)O)[C@@H](C)O)C(C)C)C(C)C [Melittin, reference compound] was tested, and the Cell viability was “less than 10%”.
